Assay results as given in patent US11672786B2, “Methods of treating diseases associated with repeat instability” (The Hospital for Sick Children, priority 2016, dated 2023).

Tests used:
HT1080-(CAG)850 cells = assay: growth curves of cells; assay type: cell-based, human; conditions: 50 μM NA
Description: Scale bar represents 20 μm. […] The cell viability was estimated with WST-1 assays. Values represent the means of three independent measures±SD. […] Error bars indicate the SD of triplicate experiments. […] The dashed line indicates the peak CAG size. Allele lengths are grouped in bins spanning 10 repeats. More than 230 alleles were sized per group.

[1] = system: Slip-outs of 3, 5, 11 or 15 CAG repeats; assay: band-shift NA binding to slip-outs of 3, 5, 11 or 15 CAG repeats; conditions: NA 15 μM and 50 μM
Description: Slip-outs of 3, 5, 11 or 15 CAG repeats extruded as a single slip-out from a fully base-paired backbone (see top panel, DNAs sequence and structure). One pmol of each substrate was mixed with increasing concentrations of NA (15 μM and 50 μM) and resolved on 4% polyacrylamide gels. All lanes are from the same gel, and they were separated for clarity. NA-DNA complexes are shown by brackets, free DNA is indicated by arrowheads. For the linear substrate, there is no NA binding (white arrowheads); at the higher concentration of NA, a small decrease of the short slip-outs DNAs (3 and 5 repeats) is observed (grey arrowheads), but it is not possible to define a clear shifted band; band-shift is evident for the (CAG)11 and (CAG)15 slip-out DNAs (black arrowheads). The relative mobility shift was measured (graph panel) as the ratio of the migration distance of each NA-DNA complex to the migration distance of the free DNA. The migration distance was measured from the well to a consistent centre point of each band. Histograms indicate the mean of three independent experiments and the corresponding standard deviation. P-values were calculated by Student's t test.

long (CTG)20 slip-out = assay: in vitro repair assay by HeLa cell extracts, long (CTG)20 slip-out; assay type: biochemical, human
Description: Panel A of […] is a schematic of the in vitro repair assay. Starting DNAs and repair products released the repeat-containing fragment, which is resolved on PAGE and assessed on a molar level by Southern blotting and densitometry. Repair of different DNA substrates containing a long (CAG)20 slip-out (Panel B of FIG. 3) long (CTG)20 slip-out (Panel C of FIG. 3), a single CAG slip-out (Panel D of FIG. 3) or a single G-T mismatch (Panel E of FIG. 3), in the absence or in the presence of NA. Slipped-DNA substrates were prepared from hybrids of (CAG)50●(CTG)30, (CAG)30●(CTG)50 or of (CAG)50●(CTG)49. Repair of the G-T mismatch reconstitutes a HindIII restriction site, as shown schematically. Graphs show percentage repair efficiencies to repaired product relative to all repeat-containing fragments in the lane, values are normalized to the NA-free efficiency. […]
To determine how the binding of NA to slipped DNA structures affects repair, a series of circular slipped heteroduplex substrates was made with an excess of repeats with a nick located either 5′ or 3′ of the slip-out (FIG. 3). […] All these substrates were processed in […] by HeLa extracts and then were assessed for repair. Repair products were analyzed by Southern blotting, probed for the repeat-containing fragment, and compared with starting material, which permitted quantitative assessment of repair efficiency at a molar level. […]

What does the source list for naphthyridine-azaquinolone?
effect on cell proliferation (growth curves) (HT1080-(CAG)850 cells): lack of an effect upon cell proliferation; NA binding by slip-out length (relative mobility shift) [1]: significantly better for longer than shorter CAG slip-outs; effect on repair of long (CTG)20 slip-outs (long (CTG)20 slip-out): doesn't affect the repair efficiency
